Active and inactive are the calls of the source. No rule for the calls is given here.

The experiment concerns counterscreen cell line, fluorescence, non-specific activators. In words: nonselective activators, counterscreen cells – cell-based, fluorescence, late stage, counter-screen for GalR3 antagonist project, dose response (AID 743092).
For `Cc1cc(C(=O)CSc2nc(N)cc(=O)[nH]2)c(C)n1-c1ccc(OC(F)F)cc1`, the IC50 is > 29.9 µM (inactive).

For the molecule `CCCCc1ccc(NC(=O)c2ccc(N(C)S(C)(=O)=O)cc2)cc1`, the IC50 is > 29.9 µM (inactive).

For `CCOC(=O)c1[nH]c2ccc(OC)cc2c1NS(=O)(=O)c1ccc(Cl)s1`, the IC50 is > 29.9 µM (inactive).

`CNc1ccccc1C(C)(C)c1cc(-c2ccc(F)cc2)no1`: the IC50 is 19.6 µM (inactive).

As for `CC(C)(C)c1ccc(-n2ncc3c2CCCC3NC(=O)C2(C(N)=O)CC2)cc1` (configuration not stated), the IC50 was > 29.9 µM (inactive).

`Fc1ccc(NC(=S)N2CCCN(c3ccc(C(F)(F)F)cn3)CC2)c(F)c1`: the IC50 is > 29.9 µM (inactive).

As for `S=C(NCCc1ccccc1)Nc1cccc2cnccc12`, the IC50 was > 29.9 µM (inactive).

Consider `CC(=O)c1cn(CC(=O)NCCc2c[nH]c3ccccc23)c2ccccc12`, for which the IC50 is > 29.9 µM (inactive).

For the molecule `Cc1cccc(Cl)c1NC(=O)N1CCCN(c2nc3ccc(Cl)cc3s2)CC1`, the IC50 is > 29.9 µM (inactive).

For `Cc1nc2ccccc2n1Cc1ccc(Cl)cc1`, the IC50 is > 29.9 µM (inactive).

For the molecule `COc1ccc(NS(=O)(=O)c2ccc(NC(=O)c3ccc(CN4CCOCC4)cc3)cc2)cc1`, the IC50 was > 29.9 µM (inactive).

Turning to `CC(C)(C)CN1CCN(Cc2nc(-c3ccc(F)cc3)cs2)CC1CCO` (configuration not stated), the IC50 is > 29.9 µM (inactive).

In the case of `Cn1nc(C(C)(C)C)cc1C(=O)NCc1ccc(N2CCCC2=O)cc1`, the IC50 is > 29.9 µM (inactive).

Turning to `COc1ccc(CN2CCC(C(=O)Nc3ccc(Oc4ccccc4)nc3)CC2)cc1F`, the IC50 is > 29.9 µM (inactive).

For the molecule `Cc1nn(C)c(Nc2ccc(Br)cc2)c1Br`, the IC50 was > 29.9 µM (inactive).

As to `CCOc1nc(C#N)nc(N2CCCCC2)n1`, the IC50 is > 29.9 µM (inactive).

On to `Cc1oc(-c2ccc(Cl)cc2)nc1CSCC(=O)NC1CCN(Cc2ccccc2)CC1`, for which the IC50 is 26.8 µM (inactive).

With `O=C(CSc1nnnn1C1CC2CCC1C2)Nc1ccnc2ccccc12` (configuration not stated), the IC50 was > 29.9 µM (inactive).

Take `Cc1nn(C)c(Cl)c1NC(=O)OCc1ccc(Cl)cc1Cl`: the IC50 is > 29.9 µM (inactive).

Regarding `Cc1ccccc1Cn1c(C)nc2ccccc21`, the IC50 is > 29.9 µM (inactive).

Take `CC(=O)c1c(C)[nH]c(C(=O)COc2cc(C)ccc2C(C)C)c1C`: the IC50 was > 29.9 µM (inactive).

For the molecule `COc1ccc(C(=O)CSc2nnc(Cn3cnc4ccccc43)o2)cc1`, the IC50 was > 29.9 µM (inactive).

Take `CC(C)(C)c1ccc(C(=O)Nc2ccc(Oc3cccnc3)nc2)cc1`: the IC50 was > 29.9 µM (inactive).

Regarding `COc1ccc(OC)c(CCNC(=O)Cn2nc(C)c3c(C)n(-c4ccc(C)cc4)nc3c2=O)c1`, the IC50 is > 29.9 µM (inactive).

For `CC(C)(C)NC(=O)COC(=O)c1snc(C(=O)NC2CCCCC2)c1N`, the IC50 is > 29.9 µM (inactive).

Turning to `O=C(CSc1nnc(Cn2nnc3ccccc32)o1)N(Cc1ccc(F)cc1)c1ccccc1`, the IC50 was > 29.9 µM (inactive).

Consider `O=C(COc1ccc(C(=O)c2ccccc2)cc1)Nc1cccnc1`, for which the IC50 was > 29.9 µM (inactive).

For the molecule `COc1ccc(CCNc2ncnc3sccc23)cc1OC`, the IC50 was > 29.9 µM (inactive).

Turning to `CC1CC(=O)NN=C1c1ccc(N)c([N+](=O)[O-])c1` (configuration not stated), the IC50 is > 29.9 µM (inactive).

`CC(=O)c1ccc(N2CCN(C(=S)Nc3ccc(Oc4ccccc4)cc3)CC2)cc1`: the IC50 was > 29.9 µM (inactive).

As for `Cc1cc(CSc2ccccc2)ccc1NC(=O)c1ccc(CN2CCOCC2)cc1`, the IC50 was > 29.9 µM (inactive).

Consider `Cc1ccc(Oc2ccc(OCC(=O)Nc3ccncc3)cc2)cc1`, for which the IC50 is > 29.9 µM (inactive).

Consider `Cc1[nH]c(=O)c(C#N)cc1-c1ccccc1`, for which the IC50 was > 29.9 µM (inactive).

Consider `Cc1cc(C)nc(SCC(=O)Nc2ccnc3ccccc23)n1`, for which the IC50 is > 29.9 µM (inactive).

`O=C(Nc1nc(-c2ccc(Cl)cc2Cl)cs1)c1ccc(OCC2CCCO2)cc1` (configuration not stated): the IC50 is > 29.9 µM (inactive).

For `O=C(Cc1ccc(Cl)cc1Cl)Nc1ccncc1Cl`, the IC50 is > 29.9 µM (inactive).

`COc1ccc(CN(C)c2ccc(S(=O)(=O)N3CCN(C)CC3)cc2[N+](=O)[O-])cc1OC`: the IC50 is > 29.9 µM (inactive).

Turning to `O=S(=O)(NCc1ccncc1)c1ccc(Br)s1`, the IC50 is > 29.9 µM (inactive).

As to `CCCCCn1c(=O)[nH]c2cc(C(=O)N3CCN(Cc4ccc5c(c4)OCO5)CC3)ccc2c1=O`, the IC50 is > 29.9 µM (inactive).

Turning to `Cc1nn(C)c(C)c1CN(C)S(=O)(=O)c1ccc2ccccc2c1`, the IC50 was > 29.9 µM (inactive).

Take `COc1cc2c(cc1OC)[C@@H]1C(=O)c3ccc4c(c3O[C@@H]1CO2)C[C@H](C(C)C)O4`: the IC50 was > 29.9 µM (inactive).

Turning to `Nc1cc(-c2ccc(Br)cc2)nn1Cc1ccccc1`, the IC50 was > 29.9 µM (inactive).

Turning to `CCCOC(=O)c1ccc(OCC(O)Cn2c(C)nc3ccccc32)cc1` (configuration not stated), the IC50 is > 29.9 µM (inactive).

Turning to `CSc1ccc(C(=O)C2CCCN(C(=O)CCc3c(C)nn(C)c3C)C2)cc1` (configuration not stated), the IC50 was > 29.9 µM (inactive).

`NC(=O)c1c(-c2ccc(Cl)cc2Cl)csc1NC(=O)Cc1ccccc1`: the IC50 was > 29.9 µM (inactive).

With `CCOC(=O)Cc1csc(NC(=O)c2cc(=O)c3ccccc3o2)n1`, the IC50 was > 29.9 µM (inactive).

In the case of `CCOc1cc(S(=O)(=O)NCc2ccncc2)ccc1Cl`, the IC50 is > 29.9 µM (inactive).

As to `COc1ccc(-n2c(C)cc(C(=O)COC(=O)Cn3cnc4ccccc43)c2C)cc1`, the IC50 is > 29.9 µM (inactive).

Turning to `CCN(CC)S(=O)(=O)c1cc(NC(=O)CNc2cccc(S(=O)(=O)N3CCOCC3)c2)ccc1C`, the IC50 was > 29.9 µM (inactive).

`CCCOc1ccc(CSc2nc3ccccc3[nH]2)cc1`: the IC50 was > 29.9 µM (inactive).

Take `CC1(C)CC2CC(C)(CN2S(=O)(=O)c2ccc(C(=O)Nc3cccc(S(=O)(=O)N4CCOCC4)c3)cc2)C1` (configuration not stated): the IC50 was > 29.9 µM (inactive).

Turning to `Cc1ccccc1-c1cc(C(=O)Nc2sc(C(=O)OC(C)C)c(C)c2C#N)c2ccccc2n1`, the IC50 is > 29.9 µM (inactive).

For `NC(=O)c1nnn(Cc2cc(Cl)c(C(=O)c3ccc(Cl)cc3)c(Cl)c2)c1N`, the IC50 was > 29.9 µM (inactive).

Consider `N#Cc1cc(-c2ccccc2)oc1NC(=O)c1ccco1`, for which the IC50 was > 29.9 µM (inactive).

Consider `COc1cc(CSc2nnnn2-c2ccc(C)cc2)cc(OC)c1OC`, for which the IC50 was > 29.9 µM (inactive).

As for `COc1cccc2[nH]c3c(N4CCC(C)CC4)ncnc3c12`, the IC50 is > 29.9 µM (inactive).

In the case of `Nc1nonc1-n1nnc(C(=O)N/N=C/c2cc(Br)ccc2O)c1CSC1=NCCS1`, the IC50 was > 29.9 µM (inactive).

A word on the IC50: it is the point on the concentration scale where inhibition reaches its midpoint.
